Test system: Dok-2 phosphorylation (tyrosine 299)
Experiment: SILAC/MALDI-TOF quantitation of Dok-2 phosphopeptide in CML cells after STI571 treatment
Format: cell-based
Details: human CML cells
Protocol: SILAC is a also powerful tool for quantifying posttranslational modifications. We examined the change in the level of phosphophorylation of Dok-2 in response to treatment of STI571, an inhibitor of Bcr-Abl kinase, in human chronic myelogenous leukemia cells. As a control, aliquots of heavy tyrosine (U—^13C9) labeled cells (5×10^8) were mixed equally with light tyrosine (^12C) labeled cells (5×10^8) before the drug treatment.
A first aliquot of heavy tyrosine labeled cells (5×10^8) was preincubated with 1 μM of STI571 at 37° C. for 1 h and then mixed with an equal number of light (natural abundance) isotope tyrosine labeled cells. A second aliquot of heavy tyrosine labeled cells (5×10^8) was preincubated with 1 μM of STI571 at 37° C. for 2 h and then also mixed with an equal number of light (natural abundance) isotope tyrosine labeled cells. In both cases, the cell mixtures (1×10^9) were lysed with NP40 lysis buffer and incubated with 30 μg of the GST fusion of the SH2 domain of SHIP1 conjugated to glutathione Sepharose 4B. Affinity captured proteins were then analyzed by SDS-PAGE on a NuPAGE® acrylamide gel (Invitrogen, Carlsbad, Calif.) and stained with SimplyBlue™ SafeStain™ protein gel stain (Invitrogen, Carlsbad, Calif.). The Dok-2 protein bands from each mixed cell sample were excised and digested with trypsin. The resulting tryptic peptides were analyzed by MALDI-TOF.

## Cc1ccc(NC(=O)c2ccc(CN3CCN(C)CC3)cc2)cc1Nc1nccc(-c2cccnc2)n1 [STI571]
1 μM STI571, 37° C., 1 h
  amount of phosphopeptide of Dok2 reduced to (peptide ratio m/z 1688 to m/z 1697): 75%
1 μM STI571, 37° C., 2 h
  inhibition of heavy labeled Dok-2 phosphopeptide (ratio of isotopic peptide pairs): more than 90%
STI571 treatment, 1 h
  decrease of phosphorylation level of Dok-2 Tyrosine 299 site: 75%
